# B1: IL-1α: recombinant human IL-1α protein (R&D Systems, #00-LA-010) (protein, UniProt P01583 113-271, looked up)
# Interleukin-1 alpha: SAPFSFLSNVKYNFMRIIKYEFILNDALNQSIIRANDQYLTAAALHNLDEAVKFDMGAYKSSKDDAKITVILRISKTQLYVTAQDEDQPVLLKEMPEIPKTITGSETNLLFFWETHGTKNYFTSVAHPNLFIATKQDYWVCLAGGPPSITDFQILENQA
# B2: recombinant activin A: recombinant human activin A (R&D Systems, #338-AC) (protein, UniProt P08476 311-426, looked up)
# Inhibin beta A chain: GLECDGKVNICCKKQFFVSFKDIGWNDWIIAPSGYHANYCEGECPSHIAGTSGSSLSFHSTVINHYRMRGHSPFANLKSCCVPTKLRPMSMLYYDDGQNIIKKDIQNMIVEECGCS
# Legend:
# α-Klotho [1] = assay: Clearance of p16Ink4a-expressing cells / senolytics in old INK-ATTAC mice, α-Klotho in kidney, urine, brain; type: in vivo, mouse; settings: 10 mg/kg i.p.
# Procedure: AP20187 (10 mg/kg) or vehicle was administered i.p. every 2 weeks for 6 weeks. […] FIG. 3B) Kidney α-Klotho mRNA was assayed by qPCR. One-way ANOVA, F=4.81, p=0.01, R^2=0.46; *p=0.03, **p<0.01. FIG. 3C) α-Klotho protein was assayed relative to GAPDH (Western blots in FIG. 13). One-way ANOVA: F=4.81, p=0.01, R^2=0.46; *p<0.05, ****p<0.0001. FIG. 3D) Mouse urine was collected 2 days after the last dose of AP20187. Urinary α-Klotho was assayed by ELISA and expressed as a function of creatinine. One-way ANOVA, F=61.53, p<0.00001, R^2=0.90; *p=0.04, ****p<0.0001. Choroid Plexus (FIG. 3E) α-Klotho protein was assayed by immunofluorescence. One-way ANOVA, F=20.98, R^2=0.80, **p<0.01, ****p<0.0001. Hippocampal (FIG. 3F) and cerebellar (FIG. 3G) α-Klotho mRNA was assayed by qPCR. […] Means±SEM; one-way ANOVA and post hoc Tukey's tests; F=3.84, p=0.038, R^2=0.40; *p=0.04 in (FIG. 3F); *p=0.04, F=7.87, p<0.01, R^2=0.60; *p=0.03 in (FIG. 3G); F=10.85; p<0.001, R^2=0.64; *p=0.03, ***p<0.0001 in (FIG. 3H); F=5.49; p=0.01, R^2=0.49; *p<0.05, **p=0.01 in (FIG. 3I).
# Old (25-26-month-old) INK-ATTAC male mice were treated with vehicle or AP20187 or D+Q (n=7). AP20187 or D+Q or vehicle was administered every 2 weeks for 6 weeks. Mouse urine was collected 5 days after the last dose of AP20187 or D+Q. Urinary α-Klotho was assayed by ELISA and expressed as a function of creatinine (FIG. 10A) or Cystatin C (FIG. 10B). One-way ANOVA, A: *p=0.038, **p=0.0066, B: *p=0.048, **p=0.0048.
# INK-ATTAC mice were as described elsewhere (Baker et al., Nature, 479(7372):232-6 (2011)). Briefly, in INK-ATTAC mice, the ATTAC gene is driven by a senescence-related p16^Ink4a promoter fragment. The fusion protein product of the ATTAC “suicide” gene contains a mutated FKBP moiety that can be cross-linked by AP20187, thereby activating the ATTAC protein caspase-8 moieties, causing apoptosis. […]
# Each cDNA sample was generated by reverse transcription using 1 μg RNA following the manufacturer's protocol (Thermo Fisher Scientific). […] Data were analysed by the ΔΔCt method. […]
# activin A = assay: Activin A mRNA in kidney of old INK-ATTAC mice (qPCR); type: in vivo, mouse; settings: 10 mg/kg i.p. (FIG. 3H)
# Procedure: (§1) FIGS. 3A-3I. Genetic clearance of highly p16^Ink4a-expressing cells increases α-Klotho. Young (8-month-old) or old (27-29-month-old) INK-ATTAC male mice were treated with vehicle or AP20187 (n=3 young+vehicle; n=3 young+AP20187; n=7 old+vehicle; n=7 old+AP20187) to dimerize the FKBP-caspase-8 fusion protein expressed in highly p16^Ink4a-expressing cells to selectively eliminate […]. AP20187 (10 mg/kg) or vehicle was administered i.p. every 2 weeks for 6 weeks. FIG. 3A) Schematic view of treatments. FIG. 3B) Kidney α-Klotho mRNA was assayed by qPCR. One-way ANOVA, F=4.81, p=0.01, R^2=0.46; *p=0.03, **p<0.01. FIG. 3C) α-Klotho protein was assayed relative to GAPDH (Western blots in FIG. 13). One-way ANOVA: F=4.81, p=0.01, R^2=0.46; *p<0.05, ****p<0.0001. FIG. 3D) Mouse urine was collected 2 days after the last dose of AP20187. Urinary α-Klotho was assayed by ELISA and expressed as a function of creatinine. One-way ANOVA, F=61.53, p<0.00001, R^2=0.90; *p=0.04, ****p<0.0001. Choroid Plexus (FIG. 3E) α-Klotho protein was assayed by immunofluorescence. […]
# (§2) Each cDNA sample was generated by reverse transcription using 1 μg RNA following the manufacturer's protocol (Thermo Fisher Scientific). […] Data were analysed by the ΔΔCt method.
# (§3) Next, it was determined if removal of p16^Ink4a-expressing cells, many of which are senescent, increases α-Klotho in old mice. […]
# IL-1α = IL-1α mRNA in hippocampus of old INK-ATTAC mice (qPCR); type: in vivo, mouse; settings: 10 mg/kg i.p. (FIG. 3I)
# Procedure: as §1, §2, §3
# α-Klotho [2] = assay: Senolytics / AP20187 in young INK-ATTAC mice, kidney and urinary α-Klotho; type: in vivo, mouse; settings: young (3-month-old) INK-ATTAC mice; Dasatinib (5 mg/kg) plus Quercetin (50 mg/kg) or AP20187 (10 mg/kg) (FIG. 12A)
# Procedure: FIGS. 12A-12B. […] 3-month-old female INK-ATTAC mice were treated with vehicle, Dasatinib (5 mg/kg) plus Quercetin (50 mg/kg), or AP20187 (10 mg/kg). FIG. 12A) Kidneys were harvested and lysed to assay α-Klotho protein by Western blotting. FIG. 12B) Urinary α-Klotho in the same cohort was assayed by ELISA after a second and third treatment with senolytic agents and expressed as a function of creatinine.
# α-Klotho was assayed by ELISA in 1:100 diluted mouse urine (IBL America, #27601). Human urine α-Klotho was assayed by ELISA (IBL America, #27998, RRID:AB_2750859). Urine α-Klotho measurements are expressed as a function of urine volume, creatinine (R&D Systems, #KGE005), and/or cystatin C (R&D Systems, #MSCTC0).
# Tissue extracts were homogenized using a Bead Mill 24 homogenizer (Waltham) and lysed in NETN buffer (20 mM Tris-HCl, pH 8.0, 100 mM NaCl, 1 mM EDTA, 0.5% Nonidet P-40), 5 mM NaF, a protease inhibitor cocktail (Millipore Sigma), and 5 mM nicotinamide. After incubating 30 minutes at 4° C., samples were centrifuged at 15,000 rpm for 10 minutes at 4° C. Protein concentrations of the supernatants were determined by the Bradford protein assay (BioRad). Lysates were separated by SDS-PAGE and transferred by electrophoresis to PVDF membranes (Millipore Sigma). […]
# α-Klotho [3] = assay: Senolytics in naturally-aged mice, α-Klotho in urine, kidney, brain; type: in vivo, mouse; settings: naturally-aged male mice 28-29-month-old, oral, vs vehicle (FIG. 4A)
# Procedure: Wild-type C57BL/6 mice were randomly assigned to D+Q, Fisetin (F), or vehicle treatments. Treatments were started at age 26-27 months for old animals, and for DIO mice after 7-8 months of high fat-feeding beginning at 4 months of age. Mice were treated every 20 days with D+Q, F, or vehicle by oral gavage for 3 consecutive days in each of 3 cycles over 2 months (9 doses in total).
# α-Klotho [4] = assay: Senolytics in mice transplanted with senescent preadipocytes, urinary α-Klotho; type: in vivo, mouse; settings: young mice transplanted i.p. with senescent cells, treated after 3 months (FIG. 4C)
# Procedure: FIGS. 4A-4D. Senolytics increase urinary and kidney α-Klotho in old or obese mice. FIG. 4A) Naturally-aged male mice (28-29-month-old, n=10 in each group) were treated with vehicle, Dasatinib plus Quercetin (D+Q), or Fisetin. Urinary α-Klotho was measured by ELISA and expressed as a function of creatinine. One-way ANOVA: F=6.39; p<0.0^5, R^2=0.30; *p=0.02, **p<0.01. FIG. 4B) DIO mice (male, 10-month-old, n=8) were treated with vehicle or D+Q and urinary α-Klotho was assayed by ELISA and expressed as a function of creatinine. Unpaired T test; **p<0.01. FIG. 4C) Six-month-old male mice (n=6 in each group) were transplanted i.p. with senescent preadipocytes. After 3 months, they were treated with vehicle, D+Q, or Fisetin. Urinary α-Klotho was assayed by ELISA and expressed as a function of creatinine. One-way ANOVA and post hoc Tukey's tests: Kruskal-Wallis statistic=10.19; *p=0.02, **p<0.01. FIG. 4D) Kidney α-Klotho protein was also assayed in the same transplanted mice by Western blotting. One-way ANOVA: F=24.24; p<0.001, R^2=0.83; ***p<0.001. […]
# α-Klotho was assayed by ELISA in 1:100 diluted mouse urine (IBL America, #27601). […] Urine α-Klotho measurements are expressed as a function of urine volume, creatinine (R&D Systems, #KGE005), and/or cystatin C (R&D Systems, #MSCTC0).
# α-Klotho [5] = assay: Senolytics on non-senescent human astrocytes, α-Klotho Western blot and qPCR; type: cell-based; settings: Dasatinib (200 nM) plus Quercetin (10 μM) or Fisetin (10 μM), 48 hours
# Procedure: FIGS. 11A-11C. […] Non-senescent human astrocytes were treated with vehicle, Dasatinib (200 nM) plus Quercetin (10 μM), or Fisetin (10 μM) for 48 hours. FIG. 11A) α-Klotho was assayed by Western blotting with GAPDH as the loading control. FIG. 11B) α-Klotho mRNA was assayed by qPCR. FIG. 11C) Non-senescent human adipose progenitor cells were treated with Dasatinib (500 nM) plus Quercetin ([…]) or vehicle for 48 hours. α-Klotho mRNA was assayed by qPCR.
# α-Klotho [6] = assay: Recombinant SASP factor treatment of non-senescent HKEs, α-Klotho qPCR; type: cell-based, human; settings: non-senescent HKEs treated with recombinant protein (FIG. 1D)
# Source text: (§4) FIGS. 1A-1F. Senescent cell conditioned medium decreases α-Klotho; blocking particular SASP factors with neutralizing antibodies partially restores α-Klotho. FIGS. 1A-1C) Conditioned media (CM) collected from senescent or non-senescent (FIG. 1A) human primary kidney endothelial cells (HKEs; one-way ANOVA: F=19.10, p<0.0001, R^2=0.89; n=3; ****p<0.0001); (FIG. 1B) human umbilical vein endothelial cells (HUVECs; one-way ANOVA: F=3.02, p=0.02, R^2=0.58, n=3; *p=0.02, **p=0.01); or (FIG. 1C) human brain astrocytes (HBAs; one-way ANOVA: F=7.93, p=0.02, R^2=0.66; n=5; ***p<0.001, *p=0.03) were applied to non-senescent HKEs, HUVECs, or HBAs, respectively, with or without antibodies against PAI-1, CXCL1, IL-6, activin A, TNF-α, IL-1α, IL-1β, or IL-18 for 48 hours. α-Klotho mRNA was assayed by qPCR. Means SEM. FIGS. 1D-1F) Primary HKEs (FIG. 1D; n=4), HUVECs (FIG. 1E; n=4), or HBAs (FIG. 1F; n=4) were treated with recombinant activin A or IL-1α. α-Klotho was assayed by qPCR 24 hours after treatments. Means±SEM; unpaired T-tests; ***p<0.001, ****p<0.0001. […]
# as §2
# α-Klotho [7] = assay: Recombinant SASP factor treatment of non-senescent HUVECs, α-Klotho qPCR; type: cell-based, human; settings: non-senescent HUVECs treated with recombinant protein (FIG. 1E)
# Source text: as §4, §2
# α-Klotho [8] = assay: Recombinant SASP factor treatment of non-senescent HBAs, α-Klotho qPCR; type: cell-based, human; settings: non-senescent HBAs treated with recombinant protein (FIG. 1F)
# Source text: as §4, §2
molecule,measurement,setting,value
CC[C@H](C(=O)N1CCCC[C@H]1C(=O)O[C@H](CCc1ccc(OC)c(OC)c1)c1cccc(OCC(=O)NCC(CNC(=O)COc2cccc([C@@H](CCc3ccc(OC)c(OC)c3)OC(=O)[C@@H]3CCCCN3C(=O)[C@@H](CC)c3cc(OC)c(OC)c(OC)c3)c2)CN(C)C)c1)c1cc(OC)c(OC)c(OC)c1 [AP20187],"urinary α-Klotho (ELISA, function of creatinine)","α-Klotho [1]; vs vehicle (FIG. 3D, FIG. 10)",increased
same,"Kidney α-Klotho (mRNA by qPCR, protein by Western blot)",α-Klotho [1]; vs vehicle (FIGS. 3B-C),increased
same,Brain α-Klotho (choroid plexus protein IF; hippocampal and cerebellar mRNA),α-Klotho [1]; vs vehicle (FIGS. 3E-G),increased
same,"activin A in kidneys (mRNA, qPCR)",activin A,decreased
same,"IL-1α in brains (hippocampus mRNA, qPCR)",IL-1α,decreased
same,"kidney α-Klotho (protein, Western blotting)",α-Klotho [2],did not increase
"O=c1c(O)c(-c2ccc(O)c(O)c2)oc2cc(O)ccc12 [F, Fisetin]","urine α-Klotho (ELISA, function of creatinine)",α-Klotho [3],increased
same,"urinary α-Klotho (ELISA, function of creatinine)",α-Klotho [4],increased
same,"α-Klotho (Western blotting, mRNA qPCR)",α-Klotho [5],did not increase
B1,expression of α-Klotho (qPCR),α-Klotho [6],decreased expression of α-Klotho
same,expression of α-Klotho (qPCR),α-Klotho [7],decreased expression of α-Klotho
same,expression of α-Klotho (qPCR),α-Klotho [8],decreased expression of α-Klotho
B2,expression of α-Klotho (qPCR),α-Klotho [6],decreased expression of α-Klotho
same,expression of α-Klotho (qPCR),α-Klotho [7],decreased expression of α-Klotho
same,expression of α-Klotho (qPCR),α-Klotho [8],decreased expression of α-Klotho
